PubChem BioAssay AID1259407 (Chemical Carcinogenesis Research Information System (CCRIS), 2018)
Activity calls are given as the source filed them. No rule for the calls is given here.

System: CCRIS mutagenicity, Ames/micronucleus/aberration tests
Test: CCRIS mutagenicity studies
[1] = Test System: AMES SALMONELLA TYPHIMURIUM, Strain/Indicator: TA98, Metabolic Activation: NONE, Method: PREINCUBATION
[2] = Test System: AMES SALMONELLA TYPHIMURIUM, Strain/Indicator: TA98, Metabolic Activation: NONE, Method: STANDARD PLATE
[3] = Test System: AMES SALMONELLA TYPHIMURIUM, Strain/Indicator: TA100, Metabolic Activation: NONE, Method: PREINCUBATION
[4] = Test System: AMES SALMONELLA TYPHIMURIUM, Strain/Indicator: TA100, Metabolic Activation: NONE, Method: STANDARD PLATE
[5] = Test System: AMES SALMONELLA TYPHIMURIUM, Strain/Indicator: TA100, Metabolic Activation: RAT, LIVER, S-9, AROCLOR 1254, Method: STANDARD PLATE
[6] = Test System: AMES SALMONELLA TYPHIMURIUM, Strain/Indicator: TA1535, Metabolic Activation: NONE, Method: STANDARD PLATE
[7] = Test System: AMES SALMONELLA TYPHIMURIUM, Strain/Indicator: TA1537, Metabolic Activation: NONE, Method: STANDARD PLATE
[8] = Test System: MOUSE LYMPHOMA, Strain/Indicator: L5178Y (TK+/TK-), Metabolic Activation: RAT, LIVER, S-9, AROCLOR 1254, Method: SUSPENSION/PLATE

Measured: mutagenic call

CNc1ccc(N(CCO)CCO)cc1[N+](=O)[O-]
inactive: End Point: IN VITRO CHROMOSOMAL ABERRATIONS, Test System: CHO-LB CELLS, Metabolic Activation: NONE inactive; negative | [2] inactive; negative | Test System: AMES SALMONELLA TYPHIMURIUM, Strain/Indicator: TA98, Metabolic Activation: RAT, LIVER, S-9, AROCLOR 1254, Method: STANDARD PLATE inactive; negative | [4] inactive; negative | [5] inactive; negative | Test System: AMES SALMONELLA TYPHIMURIUM, Strain/Indicator: TA1535, Metabolic Activation: HAMSTER, LIVER, S-9, AROCLOR 1254 (10%), Method: PREINCUBATION inactive; negative | Test System: AMES SALMONELLA TYPHIMURIUM, Strain/Indicator: TA1535, Metabolic Activation: HAMSTER, LIVER, S-9, AROCLOR 1254, Method: PREINCUBATION inactive; negative | Test System: AMES SALMONELLA TYPHIMURIUM, Strain/Indicator: TA1535, Metabolic Activation: NONE, Method: PREINCUBATION inactive; negative | [6] inactive; negative | Test System: AMES SALMONELLA TYPHIMURIUM, Strain/Indicator: TA1535, Metabolic Activation: RAT, LIVER, S-9, AROCLOR 1254 (10%), Method: PREINCUBATION inactive; negative | Test System: AMES SALMONELLA TYPHIMURIUM, Strain/Indicator: TA1535, Metabolic Activation: RAT, LIVER, S-9, AROCLOR 1254, Method: PREINCUBATION inactive; negative | Test System: AMES SALMONELLA TYPHIMURIUM, Strain/Indicator: TA1535, Metabolic Activation: RAT, LIVER, S-9, AROCLOR 1254, Method: STANDARD PLATE inactive; negative | [7] inactive; negative | Test System: AMES SALMONELLA TYPHIMURIUM, Strain/Indicator: TA1537, Metabolic Activation: RAT, LIVER, S-9, AROCLOR 1254, Method: STANDARD PLATE inactive; negative | Test System: E. COLI, Strain/Indicator: WP2 UVRA, Metabolic Activation: NONE, Method: STANDARD PLATE inactive; negative | Test System: E. COLI, Strain/Indicator: WP2 UVRA, Metabolic Activation: RAT, LIVER, S-9, AROCLOR 1254, Method: STANDARD PLATE inactive; negative | [8] inactive; negative
active: End Point: IN VITRO CHROMOSOMAL ABERRATIONS, Test System: CHO-LB CELLS, Metabolic Activation: RAT, LIVER, S-9, AROCLOR 1254 active; positive | Test System: AMES SALMONELLA TYPHIMURIUM, Strain/Indicator: TA97, Metabolic Activation: HAMSTER, LIVER, S-9, AROCLOR 1254 (10%), Method: PREINCUBATION active; positive | Test System: AMES SALMONELLA TYPHIMURIUM, Strain/Indicator: TA97, Metabolic Activation: HAMSTER, LIVER, S-9, AROCLOR 1254, Method: PREINCUBATION active; positive | Test System: AMES SALMONELLA TYPHIMURIUM, Strain/Indicator: TA97, Metabolic Activation: NONE, Method: PREINCUBATION active; positive | Test System: AMES SALMONELLA TYPHIMURIUM, Strain/Indicator: TA97, Metabolic Activation: RAT, LIVER, S-9, AROCLOR 1254 (10%), Method: PREINCUBATION active; positive | Test System: AMES SALMONELLA TYPHIMURIUM, Strain/Indicator: TA97, Metabolic Activation: RAT, LIVER, S-9, AROCLOR 1254, Method: PREINCUBATION active; positive | Test System: AMES SALMONELLA TYPHIMURIUM, Strain/Indicator: TA98, Metabolic Activation: HAMSTER, LIVER, S-9, AROCLOR 1254 (10%), Method: PREINCUBATION active; positive | Test System: AMES SALMONELLA TYPHIMURIUM, Strain/Indicator: TA98, Metabolic Activation: HAMSTER, LIVER, S-9, AROCLOR 1254, Method: PREINCUBATION active; positive | [1] active; positive | Test System: AMES SALMONELLA TYPHIMURIUM, Strain/Indicator: TA98, Metabolic Activation: RAT, LIVER, S-9, AROCLOR 1254 (10%), Method: PREINCUBATION active; positive | Test System: AMES SALMONELLA TYPHIMURIUM, Strain/Indicator: TA98, Metabolic Activation: RAT, LIVER, S-9, AROCLOR 1254, Method: PREINCUBATION active; positive | Test System: AMES SALMONELLA TYPHIMURIUM, Strain/Indicator: TA100, Metabolic Activation: HAMSTER, LIVER, S-9, AROCLOR 1254 (10%), Method: PREINCUBATION active; positive | Test System: AMES SALMONELLA TYPHIMURIUM, Strain/Indicator: TA100, Metabolic Activation: HAMSTER, LIVER, S-9, AROCLOR 1254, Method: PREINCUBATION active; positive | [3] active; positive | Test System: AMES SALMONELLA TYPHIMURIUM, Strain/Indicator: TA100, Metabolic Activation: RAT, LIVER, S-9, AROCLOR 1254 (10%), Method: PREINCUBATION active; positive | Test System: AMES SALMONELLA TYPHIMURIUM, Strain/Indicator: TA100, Metabolic Activation: RAT, LIVER, S-9, AROCLOR 1254, Method: PREINCUBATION active; positive | Test System: UDS MONKEY PRIMARY HEPATOCYTES, Strain/Indicator: THY INCORP (NON-S-PHASE), Metabolic Activation: NONE, Method: AUTORADIOGRAPHY active; positive | Test System: UDS RODENT PRIMARY HEPATOCYTES, Strain/Indicator: THY INCORP (NON-S-PHASE), Metabolic Activation: NONE, Method: AUTORADIOGRAPHY active; positive

O=c1c2c(O)cccc2oc2cc3c(c(O)c12)[C@@H]1C=CO[C@@H]1O3
inactive: Test System: AMES SALMONELLA TYPHIMURIUM, Strain/Indicator: TA98, Metabolic Activation: RAT, LIVER, S-9, PHENOBARBITAL, Method: STANDARD PLATE inactive; negative | Test System: AMES SALMONELLA TYPHIMURIUM, Strain/Indicator: TA100, Metabolic Activation: RAT, LIVER, S-9, PHENOBARBITAL, Method: STANDARD PLATE inactive; negative

CCc1ccccc1NC(=O)c1csc([N+](=O)[O-])c1
active: [2] active; positive | [4] active; positive

CC1CCOB(OCCC(C)OB2OCCC(C)O2)O1 (stereo not given)
inactive: Test System: MOUSE LYMPHOMA, Strain/Indicator: L5178Y (TK+/TK-), Metabolic Activation: NONE, Method: SUSPENSION/PLATE inactive; negative. reevaluation of results: negative | [8] inactive; negative. reevaluation of results: negative

Cc1c([N+](=O)[O-])c2ccccc2c2ccc3ccccc3c12
active: Test System: AMES SALMONELLA TYPHIMURIUM, Strain/Indicator: TA98, Metabolic Activation: RAT, LIVER, S-9, Method: PREINCUBATION active; positive | [5] active; positive | Test System: AMES SALMONELLA TYPHIMURIUM, Strain/Indicator: TA100, Metabolic Activation: RAT, LIVER, S-9, Method: PREINCUBATION active; positive
inactive: [1] inactive; negative | [3] inactive; negative | [4] inactive; negative

C[C@H]1CCC[C@H](O)CCCCCc2cc(O)cc(O)c2C(=O)O1
inactive: [2] inactive; negative | Test System: AMES SALMONELLA TYPHIMURIUM, Strain/Indicator: TA98, Metabolic Activation: RAT, LIVER, S-9, Method: STANDARD PLATE inactive; negative | [4] inactive; negative; toxicity at 1000 ug/plate | Test System: AMES SALMONELLA TYPHIMURIUM, Strain/Indicator: TA100, Metabolic Activation: RAT, LIVER, S-9, Method: STANDARD PLATE inactive; negative | [6] inactive; negative | Test System: AMES SALMONELLA TYPHIMURIUM, Strain/Indicator: TA1535, Metabolic Activation: RAT, LIVER, S-9, Method: STANDARD PLATE inactive; negative | [7] inactive; negative; toxicity at 1000 ug/plate | Test System: AMES SALMONELLA TYPHIMURIUM, Strain/Indicator: TA1537, Metabolic Activation: RAT, LIVER, S-9, Method: STANDARD PLATE inactive; negative; toxicity at 1000 ug/plate | Test System: AMES SALMONELLA TYPHIMURIUM, Strain/Indicator: TA1538, Metabolic Activation: NONE, Method: STANDARD PLATE inactive; negative | Test System: AMES SALMONELLA TYPHIMURIUM, Strain/Indicator: TA1538, Metabolic Activation: RAT, LIVER, S-9, Method: STANDARD PLATE inactive; negative; toxicity at 1000 ug/plate

O=C(ON(OCc1ccccc1)C(=O)c1ccccc1)c1ccccc1
active: [4] active; positive

N[C@@H](CCC(=O)NC(CSC(Cl)=C(Cl)Cl)C(=O)NCC(=O)O)C(=O)O (stereo not given in full)
inactive: [3] inactive; negative
active: Test System: AMES SALMONELLA TYPHIMURIUM, Strain/Indicator: TA100, Metabolic Activation: RAT, KIDNEY, MICROSOMES, Method: PREINCUBATION active; positive
